Starred links: 1 amine or outer side, 2 acyl side, 3 side chain; linkers in the order of their positions; H or OH if unused. Positions of bridges follow the written chain, without caps; N, C: chain ends. Non-standard residues stand in square brackets, D forms with d. Residues, ends and D or L forms follow the SMILES beside them. *: point of attachment. hPhe(3-Cl-4-CF3) = N[C@@H](CCc1ccc(C(F)(F)F)c(Cl)c1)C(=O)O; hPhe(3-F,4-CF3) = N[C@@H](CCc1ccc(C(F)(F)F)c(F)c1)C(=O)O; Pro(trans-4-Ph) = O=C(O)[C@@H]1C[C@@H](c2ccccc2)CN1; NMeNle(6-CHF2) = CN[C@@H](CCCCC(F)F)C(=O)O; NMedβ3hAla = C[C@H](CC(=O)[*:2])N(C)[*:1]; NMeAla(cPent) = CN[C@@H](CC1CCCC1)C(=O)O; NMeGly(cPent) = CN[C@H](C(=O)O)C1CCCC1; NMeGly(cBu) = CN[C@H](C(=O)O)C1CCC1; NMeCha = CN[C@@H](CC1CCCCC1)C(=O)O; NMeGly(cPr) = CN[C@H](C(=O)O)C1CC1; NMeChg = CN[C@H](C(=O)O)C1CCCCC1; NMeI = CC[C@H](C)[C@H](NC)C(=O)O; NMeD = CN[C@@H](CC(=O)O)C(=O)O; NMeL = CN[C@@H](CC(C)C)C(=O)O; NMeV = CN[C@H](C(=O)O)C(C)C; NMeA = CN[C@@H](C)C(=O)O; Piperidide = C1CCN(*)CC1; Ac5c = NC1(C(=O)O)CCCC1; Aze = O=C(O)[C@@H]1CCN1; Sar = CNCC(=O)O
test system: Human pancreatic cancer cell line AsPC-1; assay: Measurement of AsPC-1 cell growth inhibition (AsPC-1 CGI); assay type: cell-based; conditions: 96 h
Procedure: Measurement of AsPC-1 Cell Growth Inhibition (AsPC-1 CGI)
Test compounds were serially diluted with dimethyl sulfoxide, and 200 nL was then dispensed to a U-bottom 96-well plate using Labcyte Echo. Human pancreatic cancer cell line AsPC-1 was suspended in RPMI-1640 medium supplemented with 15% fetal bovine serum to prepare a cell suspension at 1000 cells/100 μL. The cell suspension was dispensed to a plate containing a test compound at 100 μL per well and incubated at 37° C. in a 5% carbon dioxide gas incubator. 96 hours later, 80 μL of CellTiter-Glo (Promega) was added to each well and […] was measured.

SMILES	IC50
CC[C@H](C)[C@@H]1NC(=O)[C@H](CC(C)C)N(C)C(=O)C[C@@H](C)N(C)C(=O)[C@H](C2CCCC2)N(C)C(=O)C2(CCCC2)NC(=O)[C@@H]2CCCN2C(=O)[C@H](CCc2ccc(C(F)(F)F)c(F)c2)NC(=O)CN(C)C(=O)[C@H](CC2CCCCC2)N(C)C(=O)[C@@H]2CCN2C(=O)[C@H](C)N(C)C1=O [Compound 49] (cyclo([Ac5c][NMeGly(cPent)][NMedβ3hAla][NMeL]I[NMeA][Aze][NMeCha][Sar][hPhe(3-F,4-CF3)]P))	20 to 50 nM
CC[C@H](C)[C@@H]1NC(=O)[C@H](C2CCCCC2)N(C)C(=O)C[C@@H](C(=O)N2CCCCC2)N(C)C(=O)[C@H](C(C)C)N(C)C(=O)C2(CCCC2)NC(=O)[C@@H]2CCCN2C(=O)[C@H](CCc2ccc(C(F)(F)F)c(Cl)c2)NC(=O)CN(C)C(=O)[C@H](CC2CCCCC2)N(C)C(=O)[C@@H]2CCN2C(=O)[C@H](C)N(C)C1=O [Compound 58] ([NMeChg]I[NMeA][Aze][NMeCha][Sar][hPhe(3-Cl-4-CF3)]P[Ac5c][NMeV][NMeD]-Piperidide; lactam N-11)	100 to 500 nM
CC[C@H](C)[C@@H]1NC(=O)[C@H](CC(C)C)N(C)C(=O)C[C@@H](C(=O)N2CCCCC2)N(C)C(=O)[C@H](C(C)C)N(C)C(=O)C2(CCCC2)NC(=O)[C@@H]2CCCN2C(=O)[C@H](CCc2ccc(C(F)(F)F)c(Cl)c2)NC(=O)CN(C)C(=O)[C@H](CCCCC(F)F)N(C)C(=O)[C@@H]2CCN2C(=O)[C@H](C)N(C)C1=O [Compound 78] ([NMeL]I[NMeA][Aze][NMeNle(6-CHF2)][Sar][hPhe(3-Cl-4-CF3)]P[Ac5c][NMeV][NMeD]-Piperidide; lactam N-11)	100 to 500 nM
CC[C@H](C)[C@@H]1NC(=O)[C@H](CC(C)C)N(C)C(=O)C[C@@H](C)N(C)C(=O)[C@H]([C@@H](C)CC)N(C)C(=O)C2(CCCC2)NC(=O)[C@@H]2CCCN2C(=O)[C@H](CCc2ccc(C(F)(F)F)c(Cl)c2)NC(=O)CN(C)C(=O)[C@H](C2CCCC2)N(C)C(=O)[C@@H]2CCN2C(=O)[C@H](C)N(C)C1=O [Compound 79] (cyclo([Ac5c][NMeI][NMedβ3hAla][NMeL]I[NMeA][Aze][NMeGly(cPent)][Sar][hPhe(3-Cl-4-CF3)]P))	20 to 50 nM
CC[C@H](C)[C@@H]1NC(=O)[C@H](CC(C)C)N(C)C(=O)C[C@@H](C)N(C)C(=O)[C@H](C(C)C)N(C)C(=O)C2(CCCC2)NC(=O)[C@@H]2CCCN2C(=O)[C@H](CCc2ccc(C(F)(F)F)c(Cl)c2)NC(=O)CN(C)C(=O)[C@H](CC2CCCC2)N(C)C(=O)CN(C)C(=O)CN(C)C1=O [Compound 88] (cyclo([Ac5c][NMeV][NMedβ3hAla][NMeL]I[Sar][Sar][NMeAla(cPent)][Sar][hPhe(3-Cl-4-CF3)]P))	50 to 100 nM
CC[C@H](C)[C@@H]1NC(=O)[C@H](CC(C)C)N(C)C(=O)C[C@@H](C(=O)N2CCCCC2)N(C)C(=O)[C@H](C2CCCCC2)N(C)C(=O)C2(CCCC2)NC(=O)[C@@H]2C[C@@H](c3ccccc3)CN2C(=O)[C@H](CCc2ccc(C(F)(F)F)c(Cl)c2)NC(=O)CN(C)C(=O)[C@H](CC2CCCCC2)N(C)C(=O)CN(C)C(=O)CN(C)C1=O [Compound 90] ([NMeL]I[Sar][Sar][NMeCha][Sar][hPhe(3-Cl-4-CF3)][Pro(trans-4-Ph)][Ac5c][NMeChg][NMeD]-Piperidide; lactam N-11)	100 to 500 nM
CC[C@H](C)[C@@H]1NC(=O)[C@H](CCCCC(F)F)N(C)C(=O)C[C@@H](C(=O)N2CCCCC2)N(C)C(=O)[C@H](C(C)C)N(C)C(=O)C2(CCCC2)NC(=O)[C@@H]2CCCN2C(=O)[C@H](CCc2ccc(C(F)(F)F)c(Cl)c2)NC(=O)CN(C)C(=O)[C@H](CC2CCCCC2)N(C)C(=O)[C@@H]2CCN2C(=O)[C@H](C)N(C)C1=O [Compound 94] ([NMeNle(6-CHF2)]I[NMeA][Aze][NMeCha][Sar][hPhe(3-Cl-4-CF3)]P[Ac5c][NMeV][NMeD]-Piperidide; lactam N-11)	100 to 500 nM
CC[C@H](C)[C@@H]1NC(=O)[C@H](C2CC2)N(C)C(=O)C[C@@H](C(=O)N2CCCCC2)N(C)C(=O)[C@H](C(C)C)N(C)C(=O)C2(CCCC2)NC(=O)[C@@H]2CCCN2C(=O)[C@H](CCc2ccc(C(F)(F)F)c(Cl)c2)NC(=O)CN(C)C(=O)[C@H](CC2CCCCC2)N(C)C(=O)[C@@H]2CCN2C(=O)[C@H](C)N(C)C1=O [Compound 100] ([NMeGly(cPr)]I[NMeA][Aze][NMeCha][Sar][hPhe(3-Cl-4-CF3)]P[Ac5c][NMeV][NMeD]-Piperidide; lactam N-11)	100 to 500 nM
CC[C@H](C)[C@@H]1NC(=O)[C@H](CC(C)C)N(C)C(=O)C[C@@H](C(=O)N2CCCCC2)N(C)C(=O)[C@H](C2CCCC2)N(C)C(=O)C2(CCCC2)NC(=O)[C@@H]2CCCN2C(=O)[C@H](CCc2ccc(C(F)(F)F)c(Cl)c2)NC(=O)CN(C)C(=O)[C@H](C2CCC2)N(C)C(=O)[C@@H]2CCN2C(=O)[C@H](C)N(C)C1=O [Compound 127] ([NMeL]I[NMeA][Aze][NMeGly(cBu)][Sar][hPhe(3-Cl-4-CF3)]P[Ac5c][NMeGly(cPent)][NMeD]-Piperidide; lactam N-11)	20 to 50 nM

— US12371454B2, “Cyclic peptide compound having Kras inhibitory action” (priority 2019, dated 2025)
